Test results published in the NIST ThermoML archive (doi:10.1021/je0602925).
± gives the expanded uncertainty stated by the source.

Assay: activity coefficient (dimensionless); of the first substance listed, at infinite dilution; xn = mol fraction of the nth substance listed
Conditions: Liquid, Chromatography, x1 = 0

Row | Structure (SMILES) | activity coefficient (308.15 K) | activity coefficient (318.15 K) | activity coefficient (328.15 K)
1 | C=CCCCCC [1-heptene] + CCCCCCCCCCCCCC[P+](CCCCCC)(CCCCCC)CCCCCC.F[B-](F)(F)F | 0.663 ± 0.045 | 0.647 ± 0.044 | 0.637 ± 0.044
2 | C=CCCCCC [1-heptene] + CCCCCCCCCCCCCC[P+](CCCCCC)(CCCCCC)CCCCCC.O=S(=O)([N-]S(=O)(=O)C(F)(F)F)C(F)(F)F | 0.558 ± 0.04 | 0.549 ± 0.04 | 0.543 ± 0.04
3 | C=CCCCCC [1-heptene] + CCCCCCCCCCCCCC[P+](CCCCCC)(CCCCCC)CCCCCC.[Cl-] | 0.523 ± 0.039 | 0.515 ± 0.038 | 0.511 ± 0.038
4 | C#CCCCCC [1-heptyne] + CCCCCCCCCCCCCC[P+](CCCCCC)(CCCCCC)CCCCCC.F[B-](F)(F)F | 0.374 ± 0.033 | 0.389 ± 0.034 | 0.399 ± 0.034
5 | C#CCCCCC [1-heptyne] + CCCCCCCCCCCCCC[P+](CCCCCC)(CCCCCC)CCCCCC.O=S(=O)([N-]S(=O)(=O)C(F)(F)F)C(F)(F)F | 0.485 ± 0.037 | 0.496 ± 0.038 | 0.502 ± 0.038
6 | C#CCCCCC [1-heptyne] + CCCCCCCCCCCCCC[P+](CCCCCC)(CCCCCC)CCCCCC.[Cl-] | 0.479 ± 0.037 | 0.494 ± 0.038 | 0.504 ± 0.038
7 | C#CCCCC [1-hexyne] + CCCCCCCCCCCCCC[P+](CCCCCC)(CCCCCC)CCCCCC.F[B-](F)(F)F | 0.345 ± 0.032 | 0.358 ± 0.033 | 0.366 ± 0.033
8 | C#CCCCC [1-hexyne] + CCCCCCCCCCCCCC[P+](CCCCCC)(CCCCCC)CCCCCC.O=S(=O)([N-]S(=O)(=O)C(F)(F)F)C(F)(F)F | 0.454 ± 0.036 | 0.463 ± 0.036 | 0.468 ± 0.037
9 | C#CCCCC [1-hexyne] + CCCCCCCCCCCCCC[P+](CCCCCC)(CCCCCC)CCCCCC.[Cl-] | 0.449 ± 0.036 | 0.461 ± 0.036 | 0.468 ± 0.037
10 | C#CCCCCCC [1-octyne] + CCCCCCCCCCCCCC[P+](CCCCCC)(CCCCCC)CCCCCC.F[B-](F)(F)F | 0.387 ± 0.034 | 0.406 ± 0.034 | 0.417 ± 0.035
11 | C#CCCCCCC [1-octyne] + CCCCCCCCCCCCCC[P+](CCCCCC)(CCCCCC)CCCCCC.O=S(=O)([N-]S(=O)(=O)C(F)(F)F)C(F)(F)F | 0.511 ± 0.038 | 0.524 ± 0.039 | 0.532 ± 0.039
12 | C#CCCCCCC [1-octyne] + CCCCCCCCCCCCCC[P+](CCCCCC)(CCCCCC)CCCCCC.[Cl-] | 0.494 ± 0.038 | 0.514 ± 0.038 | 0.526 ± 0.039
13 | c1ccccc1 [benzene] + CCCCCCCCCCCCCC[P+](CCCCCC)(CCCCCC)CCCCCC.F[B-](F)(F)F | 0.37 ± 0.033 | 0.367 ± 0.033 | 0.366 ± 0.033
14 | c1ccccc1 [benzene] + CCCCCCCCCCCCCC[P+](CCCCCC)(CCCCCC)CCCCCC.O=S(=O)([N-]S(=O)(=O)C(F)(F)F)C(F)(F)F | 0.406 ± 0.034 | 0.403 ± 0.034 | 0.402 ± 0.034
15 | c1ccccc1 [benzene] + CCCCCCCCCCCCCC[P+](CCCCCC)(CCCCCC)CCCCCC.[Cl-] | 0.408 ± 0.034 | 0.403 ± 0.034 | 0.4 ± 0.034
16 | C1CCCCCC1 [cycloheptane] + CCCCCCCCCCCCCC[P+](CCCCCC)(CCCCCC)CCCCCC.F[B-](F)(F)F | 1 ± 0.063 | 0.979 ± 0.061 | 0.965 ± 0.061
17 | C1CCCCCC1 [cycloheptane] + CCCCCCCCCCCCCC[P+](CCCCCC)(CCCCCC)CCCCCC.O=S(=O)([N-]S(=O)(=O)C(F)(F)F)C(F)(F)F | 0.787 ± 0.051 | 0.779 ± 0.051 | 0.774 ± 0.051
18 | C1CCCCCC1 [cycloheptane] + CCCCCCCCCCCCCC[P+](CCCCCC)(CCCCCC)CCCCCC.[Cl-] | 0.861 ± 0.055 | 0.753 ± 0.05 | 0.763 ± 0.05
19 | C1CCCCC1 [cyclohexane] + CCCCCCCCCCCCCC[P+](CCCCCC)(CCCCCC)CCCCCC.F[B-](F)(F)F | 0.73 ± 0.048 | 0.719 ± 0.048 | 0.712 ± 0.047
20 | C1CCCCC1 [cyclohexane] + CCCCCCCCCCCCCC[P+](CCCCCC)(CCCCCC)CCCCCC.O=S(=O)([N-]S(=O)(=O)C(F)(F)F)C(F)(F)F | 0.612 ± 0.043 | 0.609 ± 0.043 | 0.607 ± 0.042
21 | C1CCCCC1 [cyclohexane] + CCCCCCCCCCCCCC[P+](CCCCCC)(CCCCCC)CCCCCC.[Cl-] | 0.631 ± 0.044 | 0.627 ± 0.043 | 0.625 ± 0.043
22 | C1CCCC1 [cyclopentane] + CCCCCCCCCCCCCC[P+](CCCCCC)(CCCCCC)CCCCCC.F[B-](F)(F)F | 0.638 ± 0.044 | 0.63 ± 0.044 | 0.625 ± 0.043
23 | C1CCCC1 [cyclopentane] + CCCCCCCCCCCCCC[P+](CCCCCC)(CCCCCC)CCCCCC.O=S(=O)([N-]S(=O)(=O)C(F)(F)F)C(F)(F)F | 0.562 ± 0.04 | 0.559 ± 0.04 | 0.558 ± 0.04
24 | C1CCCC1 [cyclopentane] + CCCCCCCCCCCCCC[P+](CCCCCC)(CCCCCC)CCCCCC.[Cl-] | 0.579 ± 0.041 | 0.576 ± 0.041 | 0.574 ± 0.041

Row | Structure (SMILES) | activity coefficient (308.15 K) | activity coefficient (318.15 K) | activity coefficient (328.15 K)
25 | CCO [ethanol] + CCCCCCCCCCCCCC[P+](CCCCCC)(CCCCCC)CCCCCC.F[B-](F)(F)F | 5.59 ± 0.38 | 5.36 ± 0.36 | 5.14 ± 0.35
26 | CCO [ethanol] + CCCCCCCCCCCCCC[P+](CCCCCC)(CCCCCC)CCCCCC.O=S(=O)([N-]S(=O)(=O)C(F)(F)F)C(F)(F)F | 0.884 ± 0.056 | 0.894 ± 0.057 | 0.902 ± 0.057
27 | CCO [ethanol] + CCCCCCCCCCCCCC[P+](CCCCCC)(CCCCCC)CCCCCC.[Cl-] | 0.74 ± 0.049 | 0.737 ± 0.049 | 0.735 ± 0.049
28 | CCCCCCC [heptane] + CCCCCCCCCCCCCC[P+](CCCCCC)(CCCCCC)CCCCCC.F[B-](F)(F)F | 1 ± 0.063 | 0.97 ± 0.061 | 0.952 ± 0.06
29 | CCCCCCC [heptane] + CCCCCCCCCCCCCC[P+](CCCCCC)(CCCCCC)CCCCCC.O=S(=O)([N-]S(=O)(=O)C(F)(F)F)C(F)(F)F | 0.783 ± 0.051 | 0.769 ± 0.05 | 0.761 ± 0.05
30 | CCCCCCC [heptane] + CCCCCCCCCCCCCC[P+](CCCCCC)(CCCCCC)CCCCCC.[Cl-] | 0.816 ± 0.053 | 0.803 ± 0.052 | 0.795 ± 0.052
31 | C=CCCCC [hex-1-ene] + CCCCCCCCCCCCCC[P+](CCCCCC)(CCCCCC)CCCCCC.F[B-](F)(F)F | 0.57 ± 0.041 | 0.558 ± 0.04 | 0.551 ± 0.04
32 | C=CCCCC [hex-1-ene] + CCCCCCCCCCCCCC[P+](CCCCCC)(CCCCCC)CCCCCC.O=S(=O)([N-]S(=O)(=O)C(F)(F)F)C(F)(F)F | 0.501 ± 0.038 | 0.494 ± 0.038 | 0.49 ± 0.037
33 | C=CCCCC [hex-1-ene] + CCCCCCCCCCCCCC[P+](CCCCCC)(CCCCCC)CCCCCC.[Cl-] | 0.477 ± 0.037 | 0.471 ± 0.037 | 0.468 ± 0.037
34 | CCCCCC [hexane] + CCCCCCCCCCCCCC[P+](CCCCCC)(CCCCCC)CCCCCC.F[B-](F)(F)F | 0.968 ± 0.061 | 0.942 ± 0.059 | 0.925 ± 0.058
35 | CCCCCC [hexane] + CCCCCCCCCCCCCC[P+](CCCCCC)(CCCCCC)CCCCCC.O=S(=O)([N-]S(=O)(=O)C(F)(F)F)C(F)(F)F | 0.766 ± 0.05 | 0.751 ± 0.049 | 0.742 ± 0.049
36 | CCCCCC [hexane] + CCCCCCCCCCCCCC[P+](CCCCCC)(CCCCCC)CCCCCC.[Cl-] | 0.766 ± 0.05 | 0.753 ± 0.05 | 0.746 ± 0.049
37 | CO [methanol] + CCCCCCCCCCCCCC[P+](CCCCCC)(CCCCCC)CCCCCC.F[B-](F)(F)F | 6.68 ± 0.46 | 6.38 ± 0.43 | 6.1 ± 0.42
38 | CO [methanol] + CCCCCCCCCCCCCC[P+](CCCCCC)(CCCCCC)CCCCCC.O=S(=O)([N-]S(=O)(=O)C(F)(F)F)C(F)(F)F | 0.942 ± 0.059 | 0.958 ± 0.06 | 0.989 ± 0.062
39 | CO [methanol] + CCCCCCCCCCCCCC[P+](CCCCCC)(CCCCCC)CCCCCC.[Cl-] | 0.887 ± 0.056 | 0.879 ± 0.056 | 0.873 ± 0.056
40 | C=CCCCCCC [oct-1-ene] + CCCCCCCCCCCCCC[P+](CCCCCC)(CCCCCC)CCCCCC.F[B-](F)(F)F | 0.769 ± 0.05 | 0.748 ± 0.049 | 0.734 ± 0.049
41 | C=CCCCCCC [oct-1-ene] + CCCCCCCCCCCCCC[P+](CCCCCC)(CCCCCC)CCCCCC.O=S(=O)([N-]S(=O)(=O)C(F)(F)F)C(F)(F)F | 0.617 ± 0.043 | 0.605 ± 0.042 | 0.598 ± 0.042
42 | C=CCCCCCC [oct-1-ene] + CCCCCCCCCCCCCC[P+](CCCCCC)(CCCCCC)CCCCCC.[Cl-] | 0.567 ± 0.041 | 0.557 ± 0.04 | 0.552 ± 0.04
43 | CCCCCCCC [octane] + CCCCCCCCCCCCCC[P+](CCCCCC)(CCCCCC)CCCCCC.F[B-](F)(F)F | 1.15 ± 0.073 | 1.11 ± 0.071 | 1.09 ± 0.069
44 | CCCCCCCC [octane] + CCCCCCCCCCCCCC[P+](CCCCCC)(CCCCCC)CCCCCC.O=S(=O)([N-]S(=O)(=O)C(F)(F)F)C(F)(F)F | 0.843 ± 0.054 | 0.825 ± 0.053 | 0.814 ± 0.053
45 | CCCCCCCC [octane] + CCCCCCCCCCCCCC[P+](CCCCCC)(CCCCCC)CCCCCC.[Cl-] | 0.847 ± 0.054 | 0.831 ± 0.054 | 0.821 ± 0.053
46 | CCCCC [pentane] + CCCCCCCCCCCCCC[P+](CCCCCC)(CCCCCC)CCCCCC.F[B-](F)(F)F | 0.722 ± 0.048 | 0.706 ± 0.047 | 0.695 ± 0.047
47 | CCCCC [pentane] + CCCCCCCCCCCCCC[P+](CCCCCC)(CCCCCC)CCCCCC.O=S(=O)([N-]S(=O)(=O)C(F)(F)F)C(F)(F)F | 0.611 ± 0.043 | 0.602 ± 0.042 | 0.597 ± 0.042
